From patent US7704924B2, “Library of compounds comprising pyrrolobenzodiazepine moieties” (Spirogen Limited, priority 1998, dated 2010)

Test system: U937 chronic human histiocytic leukemia cells or K562 human chronic myeloid leukemia cells
Assay: MTT assay of the 27 member PBD library synthesised on crowns (photolytic cleavage, continuous incubation)
Format: cell-based
Settings: 4 days, with or without UVA (365 nm, 2 h) not given
Protocol: The ability of agents to inhibit the growth of U937 chronic human histiocytic leukemia cells or K562 human chronic myeloid leukemia cells in culture was measured using the MTT assay (Mosmann, 1983). This is based on the ability of viable cells to reduce a yellow soluble tetrazolium salt, 3-(4,5-dimethylthiazolyl)-2,5-diphenyltetrazolium bromide (MTT; Sigma Chemical Co.), to an insoluble purple formazan precipitate. Following drug treatment, the cells were transferred to 96-well microtitre plates with 10^4 cells per well and 8 wells per sample. The plates were incubated at 37° C. in a humidified atmosphere containing 5% CO2. Following incubation of the plates for 4 days (to allow control cells to increase in number by 10-fold), 20 μL of a 5 mg/mL solution of MTT in phosphate-buffered saline was added to each well and the plates incubated further for 5 hours. […] The optical density was then read at a wavelength of 550 nm on a Titertek Multiscan ELISA plate reader and the dose-response curve constructed. […]
Following incubation of the plates for 4 days (to allow control cells to increase in number by 10-fold), 20 μL of a 5 mg/mL solution of MTT in phosphate-buffered saline was added to each well and the plates further incubated for 5 hours. […] The optical density was then read at a wavelength of 550 nm on a Titertek Multiscan ELISA plate reader and the dose-response curve constructed.

COc1cc2c(cc1OCc1ccccc1)N=C[C@@H]1CCCN1C2=O [Benzyl DC-81, reference compound]
% Control at 0.3 μM: 47.4%
